Measurements: ChEMBL document CHEMBL4229394 (Bioorg Med Chem Lett, 2018)

Key:
[1] = molecular target: D(3) dopamine receptor (Homo sapiens) (UniProt P35462); experiment: Inhibition of D3 receptor (unknown origin) by radio ligand displacement assay relative to control; conditions: concentration not given here
[2] = molecular target: Sodium-dependent serotonin transporter (Homo sapiens) (UniProt P31645); experiment: Inhibition of SERT (unknown origin) by radio ligand displacement assay relative to control; conditions: concentration not given here
[3] = molecular target: D(4) dopamine receptor (Homo sapiens) (UniProt P21917); experiment: Inhibition of D4 receptor (unknown origin) by radio ligand displacement assay relative to control; conditions: concentration not given here
[4] = molecular target: 5-hydroxytryptamine receptor 1E (Homo sapiens) (UniProt P28566); experiment: Inhibition of 5-HT1E receptor (unknown origin) by radio ligand displacement assay relative to control; conditions: concentration not given here
[5] = molecular target: D(1A) dopamine receptor (Homo sapiens) (UniProt P21728); experiment: Inhibition of D1 receptor (unknown origin) by radio ligand displacement assay relative to control; conditions: concentration not given here
[6] = molecular target: Muscarinic acetylcholine receptor M5 (Homo sapiens) (UniProt P08912); experiment: Inhibition of M5 receptor (unknown origin) by radio ligand displacement assay relative to control; conditions: concentration not given here
[7] = molecular target: 5-hydroxytryptamine receptor 2B (Homo sapiens) (UniProt P41595); experiment: Inhibition of 5-HT2B receptor (unknown origin) by radio ligand displacement assay relative to control; conditions: concentration not given here
[8] = molecular target: Kappa-type opioid receptor (Homo sapiens) (UniProt P41145); experiment: Inhibition of KOR (unknown origin) by radio ligand displacement assay relative to control; conditions: concentration not given here
[9] = molecular target: Histamine H1 receptor (Homo sapiens) (UniProt P35367); experiment: Inhibition of H1 receptor (unknown origin) by radio ligand displacement assay relative to control; conditions: concentration not given here
Chain of Histamine H1 receptor (Homo sapiens) (P35367 whole entry): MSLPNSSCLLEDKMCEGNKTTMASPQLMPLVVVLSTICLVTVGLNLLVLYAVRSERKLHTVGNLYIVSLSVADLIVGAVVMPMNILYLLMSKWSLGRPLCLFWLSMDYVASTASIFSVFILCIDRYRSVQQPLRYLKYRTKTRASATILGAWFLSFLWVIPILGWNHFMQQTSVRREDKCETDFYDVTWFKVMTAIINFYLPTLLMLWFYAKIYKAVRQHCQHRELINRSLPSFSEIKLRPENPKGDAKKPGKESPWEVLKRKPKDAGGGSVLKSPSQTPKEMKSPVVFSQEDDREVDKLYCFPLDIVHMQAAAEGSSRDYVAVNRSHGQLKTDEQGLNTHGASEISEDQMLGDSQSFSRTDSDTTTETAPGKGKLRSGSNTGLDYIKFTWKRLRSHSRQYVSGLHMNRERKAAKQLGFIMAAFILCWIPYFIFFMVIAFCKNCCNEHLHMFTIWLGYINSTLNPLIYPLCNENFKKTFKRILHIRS

[10] = molecular target: Alpha-1D adrenergic receptor (Homo sapiens) (UniProt P25100); experiment: Inhibition of alpha-1D adrenergic receptor (unknown origin) by radio ligand displacement assay relative to control; conditions: concentration not given here
[11] = molecular target: 5-hydroxytryptamine receptor 3A (Homo sapiens) (UniProt P46098); experiment: Inhibition of 5-HT3 receptor (unknown origin) by radio ligand displacement assay relative to control; conditions: concentration not given here
[12] = molecular target: Delta-type opioid receptor (Homo sapiens) (UniProt P41143); experiment: Inhibition of DOR (unknown origin) by radio ligand displacement assay relative to control; conditions: concentration not given here
[13] = molecular target: Alpha-1A adrenergic receptor (Homo sapiens) (UniProt P35348); experiment: Inhibition of alpha-1A adrenergic receptor (unknown origin) by radio ligand displacement assay relative to control; conditions: concentration not given here
[14] = molecular target: Beta-2 adrenergic receptor (Homo sapiens) (UniProt P07550); experiment: Inhibition of beta-2 adrenergic receptor (unknown origin) by radio ligand displacement assay relative to control; conditions: concentration not given here
[15] = molecular target: 5-hydroxytryptamine receptor 7 (Homo sapiens) (UniProt P34969); experiment: Inhibition of 5-HT7 receptor (unknown origin) by radio ligand displacement assay relative to control; conditions: concentration not given here
[16] = molecular target: Sodium-dependent dopamine transporter (Homo sapiens) (UniProt Q01959); experiment: Inhibition of DAT (unknown origin) by radio ligand displacement assay relative to control; conditions: concentration not given here
[17] = molecular target: Sigma intracellular receptor 2 (Rattus norvegicus) (UniProt Q5U3Y7); experiment: Inhibition of rat sigma-2 receptor by radio ligand displacement assay relative to control; conditions: concentration not given here
[18] = molecular target: Mu-type opioid receptor (Homo sapiens) (UniProt P35372); experiment: Inhibition of MOR (unknown origin) by radio ligand displacement assay relative to control; conditions: concentration not given here
[19] = molecular target: Sodium-dependent noradrenaline transporter (Homo sapiens) (UniProt P23975); experiment: Inhibition of NET (unknown origin) by radio ligand displacement assay relative to control; conditions: concentration not given here
[20] = molecular target: 5-hydroxytryptamine receptor 1A (Homo sapiens) (UniProt P08908); experiment: Inhibition of 5-HT1A receptor (unknown origin) by radio ligand displacement assay relative to control; conditions: concentration not given here
[21] = molecular target: 5-hydroxytryptamine receptor 6 (Homo sapiens) (UniProt P50406); experiment: Inhibition of 5-HT6 receptor (unknown origin) by radio ligand displacement assay relative to control; conditions: concentration not given here
[22] = molecular target: 5-hydroxytryptamine receptor 2A (Homo sapiens) (UniProt P28223); experiment: Inhibition of 5-HT2A receptor (unknown origin) by radio ligand displacement assay relative to control; conditions: concentration not given here
[23] = molecular target: Histamine H3 receptor (Homo sapiens) (UniProt Q9Y5N1); experiment: Inhibition of H3 receptor (unknown origin) by radio ligand displacement assay relative to control; conditions: concentration not given here
[24] = molecular target: Muscarinic acetylcholine receptor M4 (Homo sapiens) (UniProt P08173); experiment: Inhibition of M4 receptor (unknown origin) by radio ligand displacement assay relative to control; conditions: concentration not given here
[25] = molecular target: 5-hydroxytryptamine receptor 1B (Homo sapiens) (UniProt P28222); experiment: Inhibition of 5-HT1B receptor (unknown origin) by radio ligand displacement assay relative to control; conditions: concentration not given here
[26] = molecular target: Muscarinic acetylcholine receptor M1 (Homo sapiens) (UniProt P11229); experiment: Inhibition of M1 receptor (unknown origin) by radio ligand displacement assay relative to control; conditions: concentration not given here
[27] = molecular target: D(1B) dopamine receptor (Homo sapiens) (UniProt P21918); experiment: Inhibition of D5 receptor (unknown origin) by radio ligand displacement assay relative to control; conditions: concentration not given here
[28] = molecular target: Muscarinic acetylcholine receptor M3 (Homo sapiens) (UniProt P20309); experiment: Inhibition of M3 receptor (unknown origin) by radio ligand displacement assay relative to control; conditions: concentration not given here
[29] = molecular target: Sigma non-opioid intracellular receptor 1 (Rattus norvegicus) (UniProt Q9R0C9); experiment: Inhibition of rat sigma-1 receptor by radio ligand displacement assay relative to control; conditions: concentration not given here
[30] = molecular target: 5-hydroxytryptamine receptor 5A (Homo sapiens) (UniProt P47898); experiment: Inhibition of 5-HT5A receptor (unknown origin) by radio ligand displacement assay relative to control; conditions: concentration not given here
[31] = molecular target: Beta-3 adrenergic receptor (Homo sapiens) (UniProt P13945); experiment: Inhibition of beta-3 adrenergic receptor (unknown origin) by radio ligand displacement assay relative to control; conditions: concentration not given here
[32] = molecular target: Histamine H4 receptor (Homo sapiens) (UniProt Q9H3N8); experiment: Inhibition of H4 receptor (unknown origin) by radio ligand displacement assay relative to control; conditions: concentration not given here
[33] = molecular target: Histamine H2 receptor (Homo sapiens) (UniProt P25021); experiment: Inhibition of H2 receptor (unknown origin) by radio ligand displacement assay relative to control; conditions: concentration not given here
Chain of Histamine H2 receptor (Homo sapiens) (P25021 whole entry): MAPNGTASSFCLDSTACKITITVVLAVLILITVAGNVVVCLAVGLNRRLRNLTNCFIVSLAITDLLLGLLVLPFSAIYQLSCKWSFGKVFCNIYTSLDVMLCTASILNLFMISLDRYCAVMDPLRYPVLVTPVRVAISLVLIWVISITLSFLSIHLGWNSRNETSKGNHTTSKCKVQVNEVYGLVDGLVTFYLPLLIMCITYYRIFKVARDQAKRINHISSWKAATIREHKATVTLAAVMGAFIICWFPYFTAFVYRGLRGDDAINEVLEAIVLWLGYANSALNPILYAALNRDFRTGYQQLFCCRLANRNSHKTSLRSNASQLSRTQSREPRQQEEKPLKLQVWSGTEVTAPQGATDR

[34] = molecular target: 5-hydroxytryptamine receptor 1D (Homo sapiens) (UniProt P28221); experiment: Inhibition of 5-HT1D receptor (unknown origin) by radio ligand displacement assay relative to control; conditions: concentration not given here
[35] = molecular target: Alpha-1B adrenergic receptor (Homo sapiens) (UniProt P35368); experiment: Inhibition of alpha-1B adrenergic receptor (unknown origin) by radio ligand displacement assay relative to control; conditions: concentration not given here
[36] = molecular target: Muscarinic acetylcholine receptor M2 (Homo sapiens) (UniProt P08172); experiment: Inhibition of M2 receptor (unknown origin) by radio ligand displacement assay relative to control; conditions: concentration not given here
[37] = molecular target: Beta-1 adrenergic receptor (Homo sapiens) (UniProt P08588); experiment: Inhibition of beta-1 adrenergic receptor (unknown origin) by radio ligand displacement assay relative to control; conditions: concentration not given here
Chain of Beta-1 adrenergic receptor (Homo sapiens) (P08588 whole entry, looked up): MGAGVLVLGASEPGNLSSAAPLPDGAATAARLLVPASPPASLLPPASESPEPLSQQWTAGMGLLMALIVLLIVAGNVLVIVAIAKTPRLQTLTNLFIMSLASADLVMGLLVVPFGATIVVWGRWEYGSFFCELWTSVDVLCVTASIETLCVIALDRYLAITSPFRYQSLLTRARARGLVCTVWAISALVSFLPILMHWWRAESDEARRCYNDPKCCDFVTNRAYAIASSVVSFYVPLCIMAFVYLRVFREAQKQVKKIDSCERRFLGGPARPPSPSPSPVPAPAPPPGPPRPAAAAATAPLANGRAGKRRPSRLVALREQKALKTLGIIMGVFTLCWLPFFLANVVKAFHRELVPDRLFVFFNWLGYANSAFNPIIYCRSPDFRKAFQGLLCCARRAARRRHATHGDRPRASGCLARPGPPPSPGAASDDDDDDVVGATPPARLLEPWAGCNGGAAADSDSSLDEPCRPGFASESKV

[38] = molecular target: Alpha-2A adrenergic receptor (Homo sapiens) (UniProt P08913); experiment: Inhibition of alpha-2A adrenergic receptor (unknown origin) by radio ligand displacement assay relative to control; conditions: concentration not given here
[39] = molecular target: D(2) dopamine receptor (Homo sapiens) (UniProt P14416); experiment: Inhibition of D2 receptor (unknown origin) by radio ligand displacement assay relative to control; conditions: concentration not given here
[40] = molecular target: 5-hydroxytryptamine receptor 2C (Homo sapiens) (UniProt P28335); experiment: Inhibition of 5-HT2C receptor (unknown origin) by radio ligand displacement assay relative to control; conditions: concentration not given here
GABA-B receptor = GABA-B receptor (Homo sapiens, UniProt O75899+Q9UBS5); experiment: Agonist activity at human GABA-B1/B2 receptor expressed in HEK293/Cre-luc cells assessed as inhibition of forskolin-stimulated cAMP accumulation after 3 hrs by luciferase reporter gene assay; type: cell-based
Chain of GABA-B receptor (Q9UBS5 whole entry, the tested form may be a part): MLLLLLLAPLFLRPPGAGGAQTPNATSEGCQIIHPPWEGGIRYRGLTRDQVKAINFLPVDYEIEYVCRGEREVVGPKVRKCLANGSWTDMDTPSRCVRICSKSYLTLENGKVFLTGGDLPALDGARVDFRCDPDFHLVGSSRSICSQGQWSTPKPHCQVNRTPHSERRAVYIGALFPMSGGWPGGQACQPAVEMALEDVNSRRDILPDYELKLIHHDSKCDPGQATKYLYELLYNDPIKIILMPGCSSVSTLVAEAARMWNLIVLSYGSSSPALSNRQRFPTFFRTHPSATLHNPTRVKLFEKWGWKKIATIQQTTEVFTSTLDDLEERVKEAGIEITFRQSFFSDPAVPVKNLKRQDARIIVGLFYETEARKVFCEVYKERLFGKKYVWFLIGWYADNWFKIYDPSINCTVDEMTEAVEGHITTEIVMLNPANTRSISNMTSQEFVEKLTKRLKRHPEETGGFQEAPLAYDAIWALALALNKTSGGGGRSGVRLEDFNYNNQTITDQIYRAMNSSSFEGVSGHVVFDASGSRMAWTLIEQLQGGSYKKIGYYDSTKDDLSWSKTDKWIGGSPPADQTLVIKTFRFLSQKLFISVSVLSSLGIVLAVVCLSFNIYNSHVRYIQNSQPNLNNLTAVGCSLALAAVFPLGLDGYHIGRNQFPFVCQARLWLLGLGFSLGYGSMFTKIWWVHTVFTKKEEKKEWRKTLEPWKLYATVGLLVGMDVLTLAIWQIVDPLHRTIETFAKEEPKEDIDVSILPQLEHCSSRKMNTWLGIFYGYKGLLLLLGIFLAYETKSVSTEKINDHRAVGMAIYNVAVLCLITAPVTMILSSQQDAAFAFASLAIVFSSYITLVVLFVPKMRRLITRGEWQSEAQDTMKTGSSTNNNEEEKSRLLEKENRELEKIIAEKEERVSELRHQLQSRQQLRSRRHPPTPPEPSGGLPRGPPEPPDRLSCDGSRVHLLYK
Chain of GABA-B receptor (O75899 whole entry, the tested form may be a part): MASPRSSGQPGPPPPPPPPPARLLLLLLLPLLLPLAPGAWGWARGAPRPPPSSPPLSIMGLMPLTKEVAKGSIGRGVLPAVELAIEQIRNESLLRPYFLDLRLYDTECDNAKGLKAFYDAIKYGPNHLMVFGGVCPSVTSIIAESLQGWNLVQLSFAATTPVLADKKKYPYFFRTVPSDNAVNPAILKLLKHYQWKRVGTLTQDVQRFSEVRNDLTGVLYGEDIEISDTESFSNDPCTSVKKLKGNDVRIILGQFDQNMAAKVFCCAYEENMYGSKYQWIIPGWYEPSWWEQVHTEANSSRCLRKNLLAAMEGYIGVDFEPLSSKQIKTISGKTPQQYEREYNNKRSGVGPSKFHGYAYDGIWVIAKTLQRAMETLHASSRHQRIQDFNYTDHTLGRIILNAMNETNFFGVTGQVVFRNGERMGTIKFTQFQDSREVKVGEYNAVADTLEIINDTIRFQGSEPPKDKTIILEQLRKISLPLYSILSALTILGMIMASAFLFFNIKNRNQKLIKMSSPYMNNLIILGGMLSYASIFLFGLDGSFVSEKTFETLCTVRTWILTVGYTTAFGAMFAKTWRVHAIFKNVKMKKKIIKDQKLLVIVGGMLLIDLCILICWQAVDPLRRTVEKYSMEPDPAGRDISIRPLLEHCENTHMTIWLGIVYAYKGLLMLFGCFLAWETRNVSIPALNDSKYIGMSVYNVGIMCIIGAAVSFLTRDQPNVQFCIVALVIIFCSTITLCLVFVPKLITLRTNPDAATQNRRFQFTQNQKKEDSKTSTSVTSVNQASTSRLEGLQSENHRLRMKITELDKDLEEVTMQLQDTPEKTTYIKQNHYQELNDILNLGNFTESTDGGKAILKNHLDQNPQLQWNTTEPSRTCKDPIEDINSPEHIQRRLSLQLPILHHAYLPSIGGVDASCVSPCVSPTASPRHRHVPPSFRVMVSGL

[41] = molecular target: GABA-A receptor; alpha-1/beta-2/gamma-2 (Rattus norvegicus, UniProt P18508+P62813+P63138); experiment: Agonist activity at rat GFP-fused GABA-A alpha1/beta2/gamma2 receptor expressed in human tsA201 cells at -60 mV holding potential by whole-cell voltage clamp method; type: cell-based
Chain of GABA-A receptor; alpha-1/beta-2/gamma-2 (P18508 whole entry, the tested form may be a part): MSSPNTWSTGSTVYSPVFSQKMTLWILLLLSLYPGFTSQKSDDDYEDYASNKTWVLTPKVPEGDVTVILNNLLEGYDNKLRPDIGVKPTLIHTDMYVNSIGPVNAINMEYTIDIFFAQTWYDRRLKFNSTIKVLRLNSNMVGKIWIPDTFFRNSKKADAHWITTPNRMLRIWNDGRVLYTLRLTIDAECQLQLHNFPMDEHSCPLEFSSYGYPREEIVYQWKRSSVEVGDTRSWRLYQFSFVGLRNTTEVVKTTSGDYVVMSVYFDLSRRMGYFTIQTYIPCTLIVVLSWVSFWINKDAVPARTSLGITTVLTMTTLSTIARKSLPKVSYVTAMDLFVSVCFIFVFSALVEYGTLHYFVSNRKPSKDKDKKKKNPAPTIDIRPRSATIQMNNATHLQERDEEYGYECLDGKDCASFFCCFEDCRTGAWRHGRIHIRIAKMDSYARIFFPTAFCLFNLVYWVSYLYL
Chain of GABA-A receptor; alpha-1/beta-2/gamma-2 (P62813 whole entry, the tested form may be a part): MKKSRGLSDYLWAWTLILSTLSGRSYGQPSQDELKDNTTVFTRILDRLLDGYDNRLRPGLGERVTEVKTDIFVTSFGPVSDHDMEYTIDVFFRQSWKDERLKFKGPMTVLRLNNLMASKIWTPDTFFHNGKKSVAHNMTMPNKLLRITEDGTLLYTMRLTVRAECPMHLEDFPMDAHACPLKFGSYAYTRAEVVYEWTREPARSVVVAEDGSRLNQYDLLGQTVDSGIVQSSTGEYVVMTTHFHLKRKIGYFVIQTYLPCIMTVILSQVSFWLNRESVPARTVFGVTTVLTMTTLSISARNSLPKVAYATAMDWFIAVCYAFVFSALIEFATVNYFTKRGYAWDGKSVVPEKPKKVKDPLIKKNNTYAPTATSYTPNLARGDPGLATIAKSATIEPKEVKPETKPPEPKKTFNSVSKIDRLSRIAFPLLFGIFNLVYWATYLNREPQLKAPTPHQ
Chain of GABA-A receptor; alpha-1/beta-2/gamma-2 (P63138 whole entry, the tested form may be a part): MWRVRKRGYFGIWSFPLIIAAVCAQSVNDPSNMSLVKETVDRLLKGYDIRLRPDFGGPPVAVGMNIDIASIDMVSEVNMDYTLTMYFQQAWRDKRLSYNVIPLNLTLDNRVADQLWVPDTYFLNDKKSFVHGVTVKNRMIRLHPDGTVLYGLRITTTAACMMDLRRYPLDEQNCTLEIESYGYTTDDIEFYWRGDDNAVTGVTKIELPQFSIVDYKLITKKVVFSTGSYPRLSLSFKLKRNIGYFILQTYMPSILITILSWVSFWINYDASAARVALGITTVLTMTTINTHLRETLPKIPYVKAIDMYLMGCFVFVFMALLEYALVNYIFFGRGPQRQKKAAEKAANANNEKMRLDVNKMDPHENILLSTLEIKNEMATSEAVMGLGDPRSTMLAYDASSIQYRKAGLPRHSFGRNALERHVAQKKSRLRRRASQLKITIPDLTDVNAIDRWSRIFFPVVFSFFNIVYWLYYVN

HEK293 = experiment: Cytotoxicity against HEK293 cells co-expressing human GABA-B1/B2 receptor and Cre-luc plasmid at 50 to 100 uM after 3 hrs by CellTiter 96 aqueous one solution reagent based assay; type: cell-based; conditions: hek293, 3 h

Chain of D(3) dopamine receptor (Homo sapiens) (P35462 whole entry): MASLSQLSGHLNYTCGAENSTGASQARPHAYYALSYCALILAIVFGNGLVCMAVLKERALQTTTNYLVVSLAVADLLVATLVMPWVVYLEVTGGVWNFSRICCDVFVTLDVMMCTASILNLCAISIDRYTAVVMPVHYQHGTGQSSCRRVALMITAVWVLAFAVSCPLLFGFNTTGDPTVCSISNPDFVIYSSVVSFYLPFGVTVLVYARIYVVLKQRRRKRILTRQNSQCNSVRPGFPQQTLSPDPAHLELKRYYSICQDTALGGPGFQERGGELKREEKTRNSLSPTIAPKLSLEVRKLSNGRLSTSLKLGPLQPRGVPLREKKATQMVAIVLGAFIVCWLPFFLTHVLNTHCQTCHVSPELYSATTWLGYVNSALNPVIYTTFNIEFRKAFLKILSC

CC(=O)c1ccc(C(O)C(F)(F)C(=O)C23CC4CC(CC(C4)C2)C3)cc1 (stereo unspecified)
inhibition [1]: < 30%
inhibition [2]: < 30%
inhibition [3]: < 30%
inhibition [4]: < 30%
inhibition [5]: < 30%
inhibition [6]: < 30%
inhibition [7]: < 30%
inhibition [8]: < 30%
inhibition [9]: < 30%
inhibition [10]: < 30%
inhibition [11]: < 30%
inhibition [12]: < 30%
inhibition [13]: < 30%
inhibition [14]: < 30%
inhibition [15]: < 30%
inhibition [16]: < 30%
inhibition [17]: < 30%
inhibition [18]: < 30%
inhibition [19]: < 30%
inhibition [20]: < 30%
inhibition [21]: < 30%
inhibition [22]: < 30%
inhibition [23]: < 30%
inhibition [24]: < 30%
inhibition [25]: < 30%
inhibition [26]: < 30%
inhibition [27]: < 30%
inhibition [28]: < 30%
inhibition [29]: < 30%
inhibition [30]: < 30%
inhibition [31]: < 30%
inhibition [32]: < 30%
inhibition [33]: < 30%
inhibition [34]: < 30%
inhibition [35]: < 30%
inhibition [36]: < 30%
inhibition [37]: < 30%
inhibition [38]: < 30%
inhibition [39]: < 30%
inhibition [40]: < 30%

CC(C)(C)OC(=O)NC(c1ccccc1)C(F)(F)C(=O)c1ccc2c(c1)OCO2 (stereo unspecified)
EC50 (GABA-B receptor): > 100 µM

O=C(C12CC3CC(CC(C3)C1)C2)C(F)(F)C(O)/C=C/c1ccccc1 (stereo unspecified)
EC50 [41]: > 100 µM

O=C(c1ccc2ccccc2c1)C(F)(F)C(NS(=O)(=O)c1ccccc1)c1ccccc1 (stereo unspecified)
EC50 [41]: > 100 µM
EC50 (GABA-B receptor): 32.7 µM

O=C(c1ccc(Cl)cc1)C(F)(F)C(NCc1ccccc1)c1ccccc1 (stereo unspecified)
EC50 [41]: > 100 µM
EC50 (GABA-B receptor): 57.4 µM

CC(C)(C)OC(=O)NC(c1ccccc1)C(F)(F)C(=O)c1ccc2ccccc2c1 (stereo unspecified)
inhibition [1]: < 30%
inhibition [2]: < 30%
inhibition [3]: < 30%
inhibition [4]: < 30%
inhibition [5]: < 30%
inhibition [6]: < 30%
inhibition [7]: < 30%
EC50 [41]: > 100 µM
EC50 (GABA-B receptor): 19.4 µM
inhibition [8]: < 30%
inhibition [9]: < 30%
inhibition [10]: < 30%
inhibition [11]: < 30%
inhibition [12]: < 30%
inhibition [13]: < 30%
inhibition [14]: < 30%
inhibition [15]: < 30%
inhibition [16]: < 30%
inhibition [17]: < 30%
inhibition [18]: < 30%
inhibition [19]: < 30%
inhibition [20]: < 30%
inhibition [21]: < 30%
inhibition [22]: < 30%
inhibition [23]: < 30%
inhibition [24]: < 30%
inhibition [25]: < 30%
inhibition [26]: < 30%
inhibition [27]: < 30%
inhibition [28]: < 30%
inhibition [29]: < 30%
inhibition [30]: < 30%
inhibition [31]: < 30%
inhibition [32]: < 30%
inhibition [33]: < 30%
inhibition [34]: < 30%
inhibition [35]: < 30%
inhibition [36]: < 30%
inhibition [37]: < 30%
inhibition [38]: < 30%
inhibition [39]: < 30%
inhibition [40]: < 30%

CCc1ccc(C(O)C(F)(F)C(=O)C23CC4CC(CC(C4)C2)C3)cc1 (stereo unspecified)
EC50 (GABA-B receptor): > 100 µM
Activity (HEK293): Toxic

O=C(C12CC3CC(CC(C3)C1)C2)C(F)(F)C(NS(=O)(=O)c1ccccc1)c1ccccc1 (stereo unspecified)
EC50 (GABA-B receptor): > 100 µM

O=C(C12CC3CC(CC(C3)C1)C2)C(F)(F)C(O)c1ccc(Cl)cc1 (stereo unspecified)
EC50 (GABA-B receptor): > 100 µM
Activity (HEK293): Toxic

CC(=O)c1ccc(C(O)C(F)(F)C(=O)c2ccccn2)cc1 (stereo unspecified)
EC50 (GABA-B receptor): > 100 µM

O=C(C12CC3CC(CC(C3)C1)C2)C(F)(F)C(O)c1ccccc1 (stereo unspecified)
EC50 (GABA-B receptor): > 100 µM
Activity (HEK293): Toxic

C/C=C/C=C/C(NCc1ccccc1)C(F)(F)C(=O)c1ccc2ccccc2c1 (stereo unspecified)
EC50 (GABA-B receptor): > 100 µM

CC(C)CC(=O)C(F)(F)C(NC(=O)OC(C)(C)C)c1ccccc1 (stereo unspecified)
EC50 (GABA-B receptor): > 100 µM

O=C1c2ccccc2C(=O)N1CC(O)C(F)(F)C(=O)C12CC3CC(CC(C3)C1)C2 (stereo unspecified)
EC50 (GABA-B receptor): > 100 µM

O=C(c1ccc2ccccc2c1)C(F)(F)C(NCc1ccccc1)c1ccccc1 (stereo unspecified)
EC50 [41]: > 100 µM
EC50 (GABA-B receptor): 91 µM
